Test results taken from ChEMBL document CHEMBL4024785 (J Med Chem, 2018).

Key:
Carbonic anhydrase 12 = Carbonic anhydrase 12 (Homo sapiens, UniProt O43570)
Description: Inhibition of recombinant human carbonic anhydrase 12 expressed in Escherichia coli L21-GOLD (DE3) incubated for 10 mins prior to testing by stopped-flow CO2 hydration assay

Carbonic anhydrase 1 = Carbonic anhydrase 1 (Homo sapiens, UniProt P00915)
Description: Inhibition of recombinant human carbonic anhydrase 1 expressed in Escherichia coli L21-GOLD (DE3) incubated for 10 mins prior to testing by stopped-flow CO2 hydration assay

Carbonic anhydrase 9 = Carbonic anhydrase 9 (Homo sapiens, UniProt Q16790)
Description: Inhibition of recombinant human carbonic anhydrase 9 expressed in Escherichia coli L21-GOLD (DE3) incubated for 10 mins prior to testing by stopped-flow CO2 hydration assay

Carbonic anhydrase 12, sequence (O43570 whole entry): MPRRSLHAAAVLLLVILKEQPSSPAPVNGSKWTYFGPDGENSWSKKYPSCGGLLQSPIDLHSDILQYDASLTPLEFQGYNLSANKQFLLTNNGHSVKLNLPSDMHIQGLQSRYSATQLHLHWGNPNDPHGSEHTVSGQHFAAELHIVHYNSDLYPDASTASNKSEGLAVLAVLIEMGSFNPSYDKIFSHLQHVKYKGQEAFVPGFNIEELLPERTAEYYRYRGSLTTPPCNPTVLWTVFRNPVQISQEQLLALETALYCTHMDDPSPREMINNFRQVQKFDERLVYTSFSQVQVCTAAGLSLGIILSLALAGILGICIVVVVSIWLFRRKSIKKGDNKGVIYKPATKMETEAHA
Carbonic anhydrase 1, sequence (P00915 whole entry): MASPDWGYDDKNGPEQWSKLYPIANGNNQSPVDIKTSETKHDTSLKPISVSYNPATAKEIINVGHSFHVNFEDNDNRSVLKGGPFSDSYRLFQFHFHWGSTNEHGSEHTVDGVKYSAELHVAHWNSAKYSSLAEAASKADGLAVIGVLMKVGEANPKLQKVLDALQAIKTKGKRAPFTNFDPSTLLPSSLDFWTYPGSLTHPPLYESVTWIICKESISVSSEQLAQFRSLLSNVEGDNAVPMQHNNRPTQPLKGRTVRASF

For `O=C1NS(=O)(=O)c2ccccc21` [SACCHARIN], the Ki (Carbonic anhydrase 12) was 650 nM, the Ki (Carbonic anhydrase 1) was > 20000 nM and the Ki (Carbonic anhydrase 9) was 100 nM.
